Values joined by “and” are separate entries in the source; they are usually repeats but may differ in a detail not shown here. Equal entries are not always repeated. ± gives the expanded uncertainty stated by the source.
Conditions: Liquid

| Structure (SMILES) | mass density (343.2 K, 101.33 kPa) | mass density (353.2 K, 101.33 kPa) | mass density (363.2 K, 101.33 kPa) | mass density (373.2 K, 101.33 kPa) | mass density (293.2 K, 101.33 kPa) | mass density (303.2 K, 101.33 kPa) | mass density (313.2 K, 101.33 kPa) | mass density (323.2 K, 101.33 kPa) | mass density (333.2 K, 101.33 kPa) | mass density (293.2 K) | mass density (303.2 K) | mass density (313.2 K) | mass density (323.2 K) | mass density (333.2 K) | mass density (343.2 K) | mass density (353.2 K) | mass density (363.2 K) | mass density (373.2 K) |
| --- | --- | --- | --- | --- | --- | --- | --- | --- | --- | --- | --- | --- | --- | --- | --- | --- | --- | --- |
| CCn1c2ccccc2c2ccccc21 [9-ethylcarbazole] | 1062.78 ± 6.6 kg/m3 and 1062.93 ± 6.6 kg/m3 and 1063.05 ± 6.6 kg/m3 | 1055.37 ± 6.4 kg/m3 and 1055.51 ± 6.4 kg/m3 and 1055.63 ± 6.4 kg/m3 | 1048.06 ± 6.3 kg/m3 and 1048.2 ± 6.3 kg/m3 and 1048.32 ± 6.3 kg/m3 | 1040.99 ± 6.1 kg/m3 and 1041.11 ± 6.1 kg/m3 and 1040.85 ± 6.1 kg/m3 |  |  |  |  |  |  |  |  |  |  |  |  |  |  |
| CC1CCCCC1 [methylcyclohexane] | 728.38 ± 9.1 kg/m3 and 728.56 ± 9.1 kg/m3 and 728.71 ± 9.1 kg/m3 | 720.64 ± 9.3 kg/m3 and 720.82 ± 9.3 kg/m3 and 720.97 ± 9.3 kg/m3 | 713.07 ± 9.4 kg/m3 and 713.24 ± 9.4 kg/m3 and 713.39 ± 9.4 kg/m3 | 705.65 ± 9.6 kg/m3 and 705.82 ± 9.6 kg/m3 and 705.96 ± 9.6 kg/m3 | 769.72 ± 8.2 kg/m3 and 769.91 ± 8.2 kg/m3 and 770.07 ± 8.2 kg/m3 | 761.08 ± 8.4 kg/m3 and 761.27 ± 8.4 kg/m3 and 761.42 ± 8.4 kg/m3 | 752.63 ± 8.6 kg/m3 and 752.82 ± 8.6 kg/m3 and 752.97 ± 8.6 kg/m3 | 744.55 ± 8.8 kg/m3 and 744.71 ± 8.7 kg/m3 and 744.37 ± 8.8 kg/m3 | 736.29 ± 8.9 kg/m3 and 736.47 ± 8.9 kg/m3 and 736.62 ± 8.9 kg/m3 |  |  |  |  |  |  |  |  |  |
| Cc1ccccc1 [toluene] |  |  |  |  |  |  |  |  |  | 867.3 ± 6.3 kg/m3 and 867.61 ± 6.3 kg/m3 and 867.8 ± 6.3 kg/m3 | 855.63 ± 6.5 kg/m3 and 855.94 ± 6.5 kg/m3 and 856.12 ± 6.5 kg/m3 | 844.27 ± 6.8 kg/m3 and 844.57 ± 6.8 kg/m3 and 844.75 ± 6.8 kg/m3 | 833.51 ± 7 kg/m3 and 833.68 ± 7 kg/m3 and 833.21 ± 7 kg/m3 | 822.43 ± 7.2 kg/m3 and 822.73 ± 7.2 kg/m3 and 822.9 ± 7.2 kg/m3 | 811.93 ± 7.4 kg/m3 and 812.22 ± 7.4 kg/m3 and 812.39 ± 7.4 kg/m3 | 801.69 ± 7.6 kg/m3 and 801.98 ± 7.6 kg/m3 and 802.15 ± 7.6 kg/m3 | 791.71 ± 7.8 kg/m3 and 792 ± 7.8 kg/m3 and 792.16 ± 7.8 kg/m3 | 781.97 ± 8 kg/m3 and 782.26 ± 8 kg/m3 and 782.42 ± 8 kg/m3 |

From the NIST ThermoML archive (doi:10.1021/acs.jced.5b00789)
